Structures can show the parent of a compound that is named as a salt. Where two headings read alike, the source gives them in different places.
Assays:
[1] = system: senescence-associated β-galactosidase in salivary gland cell clusters (SGm); assay: Cellular senescence assay (SPiDER-βGal) in salivary gland tissue chip, 5 days post-radiation (15 Gy); also second screen of library hits at 100 μM; format: cell-based, mouse; settings: for Senescence normalized mean intensity: second screen of library hits at 100 μM, 5 days post-radiation, only drugs nonsignificant compared to 0 Gy in the glutathione assay; for double hit in the drug screen: glutathione and senescence assays, 100 μM, statistically similar to 0 Gy; for Senescence (radioprotection): key: +: radioprotection; ~: partial radioprotection; —: no radioprotection
Excerpt: (§1) The chip platform consists of an array of near-spherical microbubble (MB) cavities formed in poly(dimethylsiloxane) (PDMS). Each chip, containing ~50 MBs, affixed within wells of a 96-well plate (FIG. 1C). Primary salivary gland cell clusters (FIG. 1A), suspended in a poly(ethylene glycol) (PEG) hydrogel precursor and MMP-degradable peptide crosslinker solution together with the photoinitiator LAP, were applied to the chip allowing the clusters to deposit into the MBs (FIG. 1D). In situ polymerization of the hydrogel was achieved using long-wave, low intensity UV light. Over time, the cell clusters aggregate and proliferate to form SGm (FIG. 1C).
For senescence, a protocol similar to the glutathione assay was followed to determine the optimal time point post-radiation for detecting a change in senescence between 0 Gy and 15 Gy, as measured by senescence-associated β-galactosidase activity.
The glutathione and senescence assays were used to screen a library of FDA-approved drugs (Selleck Chemicals) at 100 μM. Drugs were first screened using the glutathione assay according to the timeline depicted in FIG. 2A. […] Hits with the glutathione assay were then tested with the senescence assay and considered a “double hit” if senescence levels were statistically similar to levels at 0 Gy (FIG. 4, black circles).
Mice were euthanized and the submandibular glands (SMG) were removed and chopped with a razor blade for 5 min. […] Cells were centrifuged, then resuspended in HBSS with 15 mM HEPES and passed through 100 μm and 20 μm mesh filters to isolate clusters between 20-100 μm. […] The isolated clusters were combined with hydrogel precursor solution and seeded in MB array-based chips as described below.
The cell/gel precursor solution (25 μL for 48 well; 20 μL for 96 well) was pipetted onto the MB chips and incubated for 30 min, pipetting every 10 min to redisperse cells that had settled onto the surface of the chip.
A cellular senescence assay for the chips was developed by adapting the Cellular Senescence Detection Kit—SPiDER-βGal (Dojindo Molecular Technologies, Inc. SG04). Bafilomycin A1 and SPiDER-βGal stock solutions were prepared in DMSO per manufacturer directions. The assay was performed by first incubating the chips with bafilomycin A1 (1:1000 dilution in media) for 1 hr at 37 °C. […] Chips were washed twice with media and imaged using a fluorescence microscope with a Texas Red filter (Excitation: 580 nm; Emission: 604 nm).
For radioprotection experiments, SGm were cultured in MB-hydrogel chips for 4 days, then drugs were added to the chips 30 min prior to irradiation and washed out with media 30 min post-radiation treatment. […] The glutathione and senescence assays were performed at 4- and 5-days post-radiation. For assay validation experiments, at least 3 chips (N=3) were used for each drug, corresponding to >100 MBs (n>100); these values are listed in the figure description for each experiment. Mean, standard deviation, and statistics were calculated based on the number of MBs (n).
For screening of the Selleck Chemicals compound library, the same treatment scheme was used, with drugs administered at 100 μM. One MB chip (N=1) was used per compound, with ~40-50 MBs per chip […]; statistics were calculated using the number of MBs (n) and compared to 0 Gy controls.
For both the glutathione and cellular senescence assays, images were quantified in ImageJ.

[2] = system: Reduced glutathione in salivary gland cell clusters (SGm); assay: Glutathione assay in salivary gland tissue chip, 4 days post-radiation (15 Gy); also first screen of Selleck library at 100 μM; format: cell-based, mouse; settings: for Glutathione normalized mean intensity: first screen of Selleck library at 100 μM; for Estimated EC50, Glutathione: nonlinear fit in Prism of dose response curves; for Glutathione (radioprotection): key: +: radioprotection; ~: partial radioprotection; —: no radioprotection
Excerpt: as §1, with “A salivary gland tissue chip was leveraged for high-content drug screening to identify novel radioprotective compounds (Song Y et al., Commun Biol., 2021, 4). The” for “The”
The glutathione assay was used to measure glutathione levels at various time points post-radiation to determine the optimal time point for detecting differences between 0 Gy and 15 Gy. Based on the data, the greatest signal separation was measured at 4 days post-irradiation (FIG. 9). This timepoint is similar to previous reports on decreases in glutathione post-radiation and was used for all experiments moving forward (Meeks L et al., Physiological Genomics, 2021, 53: 85-98).
The dose response to WR-1065 was examined to determine effective concentrations of WR-1065 to prevent the reduction of glutathione levels post-radiation. A SGm tissue chip was cultured for 4 days to allow spheres to form. The chip was then treated with WR-1065 30 minutes before and during radiation, followed by drug wash out with media 30 minutes post-radiation (FIG. 2A). This dosing scheme is consistent with the use of Amifostine clinically and with previous work. The glutathione assay was performed at 4 days post-radiation (FIG. 2A). […] Moreover, it is clinically relevant as 15-30 minutes before radiation, patients are administered Amifostine intravenously at 200 mg/m (Escobar A et al., IntechOpen, 2019, pp. 15-37; Eisbruch A, J Clin Oncol, 2011, 29: 119-121; Bardet, E. et al. Semin Oncol, 2002, 29, 57-60). Assuming an average adult body surface area of 17,000 cm^2 and a blood volume of 1.35 gallons (5.1 liters), Amifostine is administered at 300 μM (Mosteller, R. D. N Engl J Med 317, 1098 (1987)).
The glutathione and senescence assays were used to screen a library of FDA-approved drugs (Selleck Chemicals) at 100 μM. Drugs were first screened using the glutathione assay according to the timeline depicted in FIG. 2A. Any compound resulting in statistically similar glutathione levels compared to 0 Gy control was considered a hit (FIG. 4, grey circles). Hits with the glutathione assay were then tested with the senescence assay and considered a “double hit” if senescence levels were statistically similar to levels at 0 Gy (FIG. 4, black circles). […] While this hit rate is higher than many other drug screening reports (0.1-0.3%), this may be due to the statistical rigor afforded by the tissue chip format (Blanchard, C et al., Antimicrob Agents Chemother 2016, 60, 862-872; Colquhoun, J. M et al., Antibiotics (Basel) 2019, 8, 48). Additionally, phenotypic screens generally have higher hit rates than target-based screens (>1%) (Moffat, J. G et al., Nature Reviews Drug Discovery 2017, 16, 531-543; Rottman, M et al., Science 2010, 329, 1175-1180).
Mice were euthanized and the submandibular glands (SMG) were removed and chopped with a razor blade for 5 min. The tissue was then incubated in Hank's buffered salt solution (HBSS) containing 15 mM HEPES, 50 U/mL collagenase type II (Thermo Fischer 17101015), and 100 U/mL hyaluronidase (Sigma Aldrich H3506) at 37 °C for 30 min. Cells were centrifuged, then resuspended in HBSS with 15 mM HEPES and passed through 100 μm and 20 μm mesh filters to isolate clusters between 20-100 μm. The digestion protocol produces cell cluster sizes evenly distributed between 20 to 100 μm (Song, Y et al., Advanced Healthcare Materials). […]

[3] = Mus musculus, light or radiation study, 120 h, read-out: reduction in senescence

| Compound | Senescence normalized mean intensity ([1]; 15 Gy) | Glutathione normalized mean intensity ([2]; 15 Gy, 4 days post-radiation) | other results |
| --- | --- | --- | --- |
| CC(=O)OCC[N+](C)(C)C.[Cl-] [Acetylcholine chloride] | 1.205 | 1.04 |  |
| Cc1cnc(C(=O)O)c[n+]1[O-] [Acipimox] | 1.379 | 1.03 |  |
| NC(N)=NC(=O)c1nc(Cl)c(N)nc1N [Amiloride hydrochloride (Midamor)] | 1.487 | 1.018 |  |
| COc1ccccc1OCCNCC(O)COc1cccc2[nH]c3ccccc3c12 (stereo not shown) [Carvedilol] | 1.255 | 0.9878 |  |
| C[C@H](CCC(=O)O)[C@H]1CC[C@H]2[C@@H]3[C@H](O)C[C@@H]4C[C@H](O)CC[C@]4(C)[C@H]3CC[C@]12C [Chenodeoxycholic acid] | 1.45 | 1.11 |  |
| CN(C)CCC(c1ccc(Cl)cc1)c1ccccn1 (stereo not shown) [Chlorpheniramine Maleate] | 1.308 | 1.145 |  |
| CN1CCC[C@@H]1CCO[C@](C)(c1ccccc1)c1ccc(Cl)cc1 [Clemastine Fumarate] | 1.237 | 1.106 |  |
| CCOC(=O)C(C)(C)Oc1ccc(Cl)cc1 [Clofibrate (Atromid-S)] | 1.714 | 1.009 |  |
| COc1cc(/C=C/C(=O)CC(=O)/C=C/c2ccc(O)c(OC)c2)ccc1O [Curcumin] | 0.8098 | 0.9059 |  |
| CC/C(=C(/CC)c1ccc(O)cc1)c1ccc(O)cc1 [Diethylstilbestrol (Stilbestrol)] | 0.8812 | 0.8894 | concentration range of radioprotection, senescence assay ([1]; dose response, 15 Gy): 50 to 100 µM; Estimated EC50, Senescence ([1]; nonlinear fit in Prism of dose response curves, 15 Gy): 37.7 µM; concentration range of radioprotection, glutathione assay ([2]; dose response, 15 Gy): 10 to 100 µM; Estimated EC50, Glutathione ([2]; 15 Gy): 0.7 µM |
| CC(C(=O)[O-])c1cccc(Oc2ccccc2)c1.CC(C(=O)[O-])c1cccc(Oc2ccccc2)c1.[Ca+2] (stereo not shown) [Fenoprofen calcium] | 1.472 | 0.9731 |  |
| COC(=O)Nc1nc2cc(C(=O)c3ccc(F)cc3)ccc2[nH]1 [Flubendazole (Flutelmium)] | 1.444 | 1.065 |  |
| Cc1cnc(C(=O)NCCc2ccc(S(=O)(=O)NC(=O)NC3CCCCC3)cc2)cn1 [Glipizide (Glucotrol)] |  |  | radioprotection in dose response, senescence assay ([1]; dose response, 15 Gy): variable protection; radioprotection in dose response, glutathione assay ([2]; dose response, 15 Gy): protection only at higher concentrations; Estimated EC50, Glutathione ([2]; 15 Gy): 4.0 µM |
| O=NN(CCCl)C(=O)NC1CCCCC1 [Lomustine (CeeNU)] | 1.023 | 0.9042 |  |
| CC(=O)N[C@@H](CS)C(=O)O [N-acetylcysteine] |  |  | protection against radiation-induced senescence ([1]; 10 mM): protective; inhibition at 1000 µM ([1]; Mus musculus, light or radiation study, 120 h, 1 mM, versus untreated, irradiated controls, read-out: reduction in senescence): 83%; inhibition at 4000 µM ([1]; Mus musculus, light or radiation study, 120 h, 4 mM, versus untreated, irradiated controls, read-out: reduction in senescence): 57%; inhibition at 10000 µM ([1]; Mus musculus, light or radiation study, 120 h, 10 mM, versus untreated, irradiated controls, read-out: reduction in senescence): 82%; prevention of radiation-induced reduction of glutathione levels ([2]; 1 mM, 15 Gy, 4 days post-radiation): no improvement in glutathione levels; prevention of radiation-induced reduction of glutathione levels ([2]; 4 mM, 15 Gy, 4 days post-radiation): no improvement in glutathione levels; radioprotection using the glutathione assay ([2]; 10 mM): partial radioprotection; glutathione levels rescued ([2]; 10 mM, 15 Gy): 56% |
| COC(=O)C1=C(C)NC(C)=C(C(=O)OC)C1c1ccccc1[N+](=O)[O-] [Nifedipine (Adalat)] | 0.9725 | 0.9216 |  |
| O=C(Nc1cccc2c(=O)cc(-c3nnn[nH]3)oc12)c1ccc(OCCCCc2ccccc2)cc1 [Pranlukast] | 1.394 | 0.9284 |  |
| CO[C@H]1/C=C/O[C@@]2(C)Oc3c(C)c(O)c4c(c3C2=O)C2=NC3(CCN(CC(C)C)CC3)NC2=C(NC(=O)/C(C)=C\C=C\[C@H](C)[C@H](O)[C@@H](C)[C@@H](O)[C@@H](C)[C@H](OC(C)=O)[C@@H]1C)C4=O [Rifabutin (Mycobutin)] |  |  | double hit in the drug screen [1]: double hits |
| CO[C@H]1/C=C/O[C@@]2(C)Oc3c(C)c(O)c4c(O)c(c(/C=N/N5CCN(C)CC5)c(O)c4c3C2=O)NC(=O)/C(C)=C\C=C\[C@H](C)[C@H](O)[C@@H](C)[C@@H](O)[C@@H](C)[C@H](OC(C)=O)[C@@H]1C [Rifampin] |  |  | double hit in the drug screen [1]: double hits |
| CC1(C)CC(O)CC(C)(C)N1[O] [Tempol, 4-hydroxy-TEMPO] |  |  | Senescence (radioprotection) [1]: +; inhibition at 1000 µM [1, 3]: 75%; inhibition at 4000 µM [1, 3]: 91%; Glutathione (radioprotection) [2]: +; prevention of radiation-induced reduction of glutathione levels [2]: strong radioprotection |
